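96-well plates; 48 h exposure; 5 concentrations. Endpoints by linear interpolation between flanking doses. Not reached: highest tested concentration assigned. At the GI50, growth is halved.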 Calls of active or inactive are those of the source. Cut-off read from the data, not from the text of the source: active = GI50 up to about 1.1 µM and inactive = higher.
Columns and labels:
Assay in all cases: NCI tumour cell line growth inhibition, 48 h
SNB-19 = test system: SNB-19
SF-295 = test system: SF-295
TK-10 = test system: TK-10
UACC-62 = test system: UACC-62
RPMI-8226 = test system: RPMI-8226
SW-620 = test system: SW-620
EKVX = test system: EKVX
CCRF-CEM = test system: CCRF-CEM
OVCAR-4 = test system: OVCAR-4
UACC-257 = test system: UACC-257
HL-60 = test system: HL-60
HCC 2998 = test system: HCC 2998
U-251 = test system: U-251
IGROV-1 = test system: IGROV-1
OVCAR-5 = test system: OVCAR-5
M14 = test system: M14
T47D = test system: T47D
MDA-MB-231 = test system: MDA-MB-231
MDA-MB-435 = test system: MDA-MB-435

Measured: GI50

C[Si](C)(C)C(Sc1ccccc1)(Sc1ccccc1)Sc1ccccc1
inactive: SNB-19 > 100 µM | SF-295 74.1 µM | TK-10 > 100 µM | UACC-62 26.4 µM | RPMI-8226 41.7 µM | SW-620 46.7 µM | EKVX 95.5 µM | CCRF-CEM 24 µM | OVCAR-4 > 100 µM | UACC-257 52.5 µM | HL-60 35.2 µM | HCC 2998 94 µM | U-251 57.7 µM

CC(C)N(C(=O)c1cccc(C(=O)N(C(C)C)C(C)C)c1)C(C)C
inactive: SNB-19 > 100 µM | SF-295 > 100 µM | IGROV-1 > 100 µM | TK-10 > 100 µM | UACC-62 > 100 µM | RPMI-8226 24.9 µM | OVCAR-5 > 100 µM | SW-620 12.8 µM | EKVX > 100 µM | CCRF-CEM > 100 µM | OVCAR-4 > 100 µM | M14 > 100 µM | UACC-257 > 100 µM | HL-60 > 100 µM | HCC 2998 > 100 µM | U-251 > 100 µM

CCOC(=O)NC(=O)c1c[nH]c(=O)[nH]c1=O
inactive: SNB-19 > 100 µM | SF-295 > 100 µM | IGROV-1 > 100 µM | TK-10 > 100 µM | UACC-62 > 100 µM | RPMI-8226 > 100 µM | OVCAR-5 > 100 µM | SW-620 > 100 µM | EKVX > 100 µM | CCRF-CEM > 100 µM | OVCAR-4 > 100 µM | M14 > 100 µM | UACC-257 > 100 µM | HL-60 > 100 µM | HCC 2998 > 100 µM | U-251 > 100 µM

COc1ccc(C2Oc3cc(OC)c(OC)cc3C2CCl)cc1OC (centres undefined)
inactive: SNB-19 > 100 µM | TK-10 > 100 µM | UACC-62 25.6 µM | RPMI-8226 > 100 µM | OVCAR-5 > 100 µM | SW-620 > 100 µM | EKVX > 100 µM | CCRF-CEM > 100 µM | OVCAR-4 41.4 µM | M14 > 100 µM | UACC-257 > 100 µM | HL-60 > 100 µM | HCC 2998 > 100 µM | U-251 > 100 µM

CN(C)c1ccc(/C=c2\sc3nnc(Cc4ccccc4)n3c2=O)cc1
inactive: SNB-19 > 10 µM | SF-295 > 10 µM | IGROV-1 > 10 µM | TK-10 > 10 µM | UACC-62 > 10 µM | RPMI-8226 > 10 µM | OVCAR-5 > 10 µM | SW-620 13.7 µM | EKVX > 10 µM | CCRF-CEM > 10 µM | OVCAR-4 > 10 µM | M14 > 10 µM | UACC-257 > 10 µM | HL-60 > 10 µM | HCC 2998 > 100 µM | U-251 > 10 µM

O=C(CC1(O)C(=O)Nc2c(Cl)cc(Cl)cc21)c1ccc2ccccc2c1 (centres undefined)
inactive: SNB-19 11.4 µM | SF-295 7.93 µM | IGROV-1 10.9 µM | TK-10 14.1 µM | UACC-62 3.55 µM | RPMI-8226 5.22 µM | OVCAR-5 16.6 µM | SW-620 3.66 µM | EKVX 9.77 µM | CCRF-CEM 10.2 µM | OVCAR-4 13.6 µM | M14 4.79 µM | UACC-257 12.6 µM | HL-60 3.18 µM | HCC 2998 > 10 µM | U-251 6.92 µM

CCOC(=O)CC(=O)ON(C)C(C)=O
inactive: SNB-19 > 100 µM | SF-295 > 100 µM | IGROV-1 > 100 µM | TK-10 > 100 µM | UACC-62 > 100 µM | RPMI-8226 > 100 µM | OVCAR-5 > 100 µM | SW-620 > 100 µM | EKVX > 100 µM | CCRF-CEM > 100 µM | OVCAR-4 > 100 µM | M14 > 100 µM | UACC-257 > 100 µM | HL-60 > 100 µM | HCC 2998 > 100 µM | U-251 > 100 µM

c1ccc2sc(SCN(C3CCCCC3)C3CCCCC3)nc2c1
inactive: SNB-19 > 100 µM | SF-295 > 100 µM | IGROV-1 > 100 µM | TK-10 > 100 µM | UACC-62 > 100 µM | T47D 15.1 µM | MDA-MB-231 > 100 µM | MDA-MB-435 > 100 µM | OVCAR-5 > 100 µM | SW-620 > 100 µM | EKVX > 100 µM | OVCAR-4 > 100 µM | M14 > 100 µM | UACC-257 > 100 µM | HCC 2998 > 100 µM | U-251 > 100 µM

CSC1(CC(=O)N(C)C)C(=O)Nc2ccccc21 (centres undefined)
inactive: SNB-19 > 100 µM | SF-295 > 100 µM | IGROV-1 > 100 µM | TK-10 > 100 µM | UACC-62 > 100 µM | T47D > 100 µM | RPMI-8226 > 100 µM | MDA-MB-435 > 100 µM | OVCAR-5 > 100 µM | SW-620 > 100 µM | EKVX > 100 µM | OVCAR-4 > 100 µM | M14 > 100 µM | UACC-257 > 100 µM | HCC 2998 > 100 µM | U-251 > 100 µM

— ChEMBL document CHEMBL1201862, “PubChem BioAssay data set” (2004)
